Columns and labels:
human skin tissue [1] = assay: Effect of proguanil on skin color of cultured human skin tissue; type: cell-based; conditions: proguanil 150, 180, 210, 240, 270 or 300 μM; Day 5; versus DMSO; FIG. 12
Description: A normal human skin tissue, which was obtained at the time of surgical operation, was provided by a medical college (department of plastic surgery). The human skin tissue, from which subcutaneous fat was previously trimmed, was cut into small pieces having a size of about 1 cm×1 cm by knife. The small pieces were cultured by using a 6-well plate at 37° C. under a 5 vol % CO2 atmospheric conditions. In the culture, Advanced DMEM medium containing a 10% (v/v) Fetal Bovine Serum (FBS) (Thermo Fisher Scientific, respectively) was used. A human skin tissue was allowed to stand still in a 6-well plate. Proguanil was added in the medium at a final concentration of 150, 180, 210, 240, 270 or 300 μM and then tissue culture was performed. As a control, DMSO was added in the same amount. Medium replacement was carried out every 2 to 3 days. Day 5 after initiation of the culture, the appearance of the skin tissue was observed and photographed.

human skin tissue [2] = assay: Fontana-Masson staining of skin tissue cultured with proguanil; type: cell-based; conditions: proguanil 180 μM; 5 days; versus DMSO control; FIG. 13 upper stage
Description: (§1) The human skin tissue, from which subcutaneous fat was previously trimmed, was cut into small pieces having a size of about 1 cm×1 cm by knife. The small pieces were cultured by using a 6-well plate at 37° C. under a 5 vol % CO2 atmospheric conditions. In the culture, Advanced DMEM medium containing a 10% (v/v) Fetal Bovine Serum (FBS) (Thermo Fisher Scientific, respectively) was used. […] More specifically, the skin tissue was embedded in paraffin and the resultant paraffine block was sliced to prepare paraffin sections of 5 μm in thickness. A Fontana ammonia silver solution (manufactured by MUTO PURE CHEMICALS Co., Ltd.) was allowed to react at room temperature for two hours to visually distinguish melanin granules. Thereafter, nuclear staining was performed using Kernechtrot solution (manufactured by MUTO PURE CHEMICALS Co., Ltd.). […] At the same time, HE staining was carried out.

human skin tissue [3] = assay: HE staining of skin tissue cultured with proguanil (tissue damage); type: cell-based; conditions: proguanil 180 μM; 5 days; FIG. 13 lower stage
Description: as §1

[4] = test system: dopa oxidase activity of melanocytes; assay: Dopa oxidase activity of melanocytes in melanocyte single culture system; type: cell-based, human; conditions: melanocytes (lightly and darkly); proguanil 0.1-1000 μM; 4 days; versus DMSO; FIGS. 14A, 14B
Description: Normal human neonatal foreskin-derived epidermal melanocytes (Human Epidermal Melanocytes, neonatal, lightly pigmented donor (HEMn-LP) and Human Epidermal Melanocytes, neonatal, darkly pigmented donor (HEMn-DP); melanocytes (lightly) and melanocytes (darkly)), a growth medium for epidermal melanocytes (Medium254) and a growth additive (HMGS) for the medium were purchased from Thermo Fisher Scientific. Melanocytes were cultured at 37° C. in 5 vol % CO2 atmospheric conditions.
Melanocytes (lightly and darkly) were seeded in 96-well plates at a cell density of 2×10^4 cells/well (100 μL/well). […] Thereafter, fluorescence intensity of the medium was measured (Ex544 nm/Em590 nm) to evaluate cellular respiratory chain (growth) activity. […] The cells were lysed at 4° C. over 2 hours and dopa oxidase activity was measured. The activity measurement was performed by the following method based on the […] method (Winder A. et al., 1991, Eur. J. Biochem. 198: 317-326): to individual wells containing a cell lysate, the Assay Buffer (80 μL) as mentioned above, an aqueous 20.7 mM MBTH (3-methyl-2-benzothiazolinone hydrazone) solution (60 μL) and an aqueous 5 mM L-DOPA (L-dihydroxyphenylalanine) (40 μL) solution serving as a substrate were added, a reaction was performed at 37° C. for 30 minutes and the absorbance at a wavelength of 505 nm was measured.

[5] = test system: melanocytes (HEMn-LP, HEMn-DP); assay: Cellular respiratory chain (growth) activity, alamarBlue, melanocyte single culture system; type: cell-based, human; conditions: melanocytes (lightly and darkly); concentration range of 30 μM or less; 4 days; FIGS. 14C, 14D
Description: Melanocytes (lightly and darkly) were seeded in 96-well plates at a cell density of 2×10^4 cells/well (100 μL/well). […] As a control, the same amount of DMSO was added. After completion of culture, the whole medium was replaced (100 μL/well), a reagent, alamarBlue (Bio-Rad AbD Serotec Limited) was added so as to obtain a ratio of 10 μL/well. Incubation was carried out at 37° C. in 5 vol % CO2 atmospheric conditions for one hour. Thereafter, fluorescence intensity of the medium was measured (Ex544 nm/Em590 nm) to evaluate cellular respiratory chain (growth) activity.

[6] = test system: melanocytes (HEMn-LP, HEMn-DP); assay: Intracellular melanin amount of melanocytes in melanocyte single culture system; type: cell-based, human; conditions: melanocytes (lightly and darkly); proguanil 3, 10 or 30 μM; 7 days; versus DMSO; FIGS. 15A, 15B
Description: Normal human neonatal foreskin-derived epidermal melanocytes (Human Epidermal Melanocytes, neonatal, lightly pigmented donor (HEMn-LP) and Human Epidermal Melanocytes, neonatal, darkly pigmented donor (HEMn-DP); melanocytes (lightly) and melanocytes (darkly)), a growth medium for epidermal melanocytes (Medium254) and a growth additive (HMGS) for the medium were purchased from Thermo Fisher Scientific. Melanocytes were cultured at 37° C. in 5 vol % CO2 atmospheric conditions. Melanocytes (lightly and darkly) were seeded in 6-well plates at a cell density of 2×10^5 cells/well (2 mL/well). […] The following day, proguanil was added at a final concentration of 3, 10 or 30 μM and culture was performed at 37° C. in 5 vol % CO2 atmospheric conditions for 7 days. As a control, the same amount of DMSO was added. Note that medium replacement was carried out every 2 to 3 days. After completion of culture, the cell culture plates were washed with PBS and the cells were collected by use of a cell scraper in 1.5 mL micro tubes. To individual tubes, 2M NaOH (150 μL) was added and treatment was performed at 100° C. for 60 minutes to lyse the cells. Each of the lysates was centrifuged at a 21,640 g for 10 minutes at room temperature and the supernatant was recovered. The absorbance of the supernatant recovered was measured at a wavelength of 405 nm and the amount of melanin per well was calculated.

[7] = test system: keratinocytes and melanocytes; assay: Cellular respiratory chain (growth) activity in keratinocyte-melanocyte co-culture system; type: cell-based, human; conditions: concentration range of 30 μM or less, 4 days, FIGS. 16C, 16D
Description: Normal human neonatal foreskin-derived epidermal keratinocytes (Human Epidermal Keratinocytes, neonatal (HEKn) lightly; keratinocytes) and growth medium (Epilife) for epidermal keratinocytes were purchased from Thermo Fisher Scientific. Growth additives (Humedia-KG) for a medium were purchased from Kurabo Industries Ltd. Normal human neonatal foreskin-derived epidermal melanocytes (Human Epidermal Melanocytes, neonatal, lightly pigmented donor (HEMn-LP) and Human Epidermal Melanocytes, neonatal, darkly pigmented donor (HEMn-DP); melanocytes (lightly) and melanocytes (darkly)) were purchased from Thermo Fisher Scientific. Keratinocytes and melanocytes were cultured at 37° C. in 5 vol % CO2 atmospheric conditions.
Keratinocytes were seeded in a 96-well plate at a cell density of 1×10^4 cells/well (100 μL/well). On the following day, melanocytes (lightly and darkly) were seeded at a cell density of 2×10^4 cells/well (100 μL/well). […] Culture was performed at 37° C. in a 5 vol % CO2 atmospheric conditions for 4 days. As a test medium at this time, Epilife was used, which contained Humedia-KG growth additive (insulin, hydrocortisone, BPE, gentamicin and amphotericin B) except a Human Epidermal Growth Factor (hEGF). […] After completion of culture, cellular respiratory chain (growth) activity and dopa oxidase activity were evaluated in the same manner as in Example 11.

LC3-II = assay: Autophagy activity of epidermal keratinocytes (LC3-II accumulation with chloroquine diphosphate, Western blotting); type: cell-based, human; conditions: proguanil 0.3, 1, 3, 10 or 30 μM in presence of 10 μM chloroquine diphosphate, FIG. 18
Description: Normal human neonatal foreskin-derived epidermal keratinocytes (Human Epidermal Keratinocytes, neonatal (HEKn) lightly; keratinocytes) were purchased from Thermo Fisher Scientific. […] The keratinocytes were cultured in a grow medium (Epilife) epidermal keratinocytes (Thermo Fisher Scientific) supplemented with a growth additive (Humedia-KG) (manufactured by Kurabo Industries Ltd.) at 37° C. in 5 vol % CO2 atmospheric conditions.
Keratinocytes were seeded in a 6-well plate at a density of 1.5×10^5 cells/well (2 mL/well). The following day, proguanil was added so as to obtain a final concentration of 0.3, 1, 3, 10 or 30 μM. Culture was performed at 37° C. in 5 vol % CO2 atmospheric conditions. As a control, the same amount of DMSO was added. […] The following day, Chloroquine diphosphate attached to LC3B Antibody Kit for Autophagy (Thermo Fisher Scientific) was added so as to obtain a final concentration of 10 μM. Culture was performed at 37° C. in 5 vol % CO2 atmospheric conditions for 24 hours. After completion of the culture, SDS-PAGE and western blotting were performed in accordance with the method as mentioned above. As a primary antibody, anti-LC3B (1:1000) attached to the kit mentioned above was used. […] Expression of β-actin as the internal standard was evaluated by using monoclonal antibody specific for β-actin (Sigma-Aldrich, 1:5000).

## [H]/N=C(\N/C(=N/[H])Nc1ccc(Cl)cc1)NC(C)C [proguanil, 1-(p-chlorophenyl)-5-isopropyl biguanide]
Human skin tissue [1]
  darkening of the skin color: induces darkening of the skin color in a dose-dependent manner
Human skin tissue [2]
  deposition of melanin in the epidermis: melanin is accumulated in a wider range of the epidermis
Human skin tissue [3]
  tissue damage (HE staining): no damage was induced in the tissue
[4]
  dopa oxidase activity: did not accelerate dopa oxidase activity
[5]
  cell toxicity (cellular respiratory chain activity): cell toxicity was not observed
[6]
  intracellular amount of melanin: does not increase intracellular amount of melanin
[7]
  cell toxicity (cellular respiratory chain activity): cell toxicity was not observed
LC3-II
  accumulation of LC3-II: the accumulation was reduced by proguanil in a concentration-dependent manner
